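Compound exposure: 48 hours, 5 concentrations, 96-well plates. TGI: total growth inhibition.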
Assays:
Experiment in all cases: NCI tumour cell line growth inhibition, 48 h
TK-10 renal = test system: TK-10 renal
NCI-H522 lung = test system: NCI-H522 lung
OVCAR-3 ovarian = test system: OVCAR-3 ovarian
M14 melanoma = test system: M14 melanoma
NCI-H23 lung = test system: NCI-H23 lung
RXF 393 renal = test system: RXF 393 renal
HOP-62 NSCLC = test system: HOP-62 NSCLC
SW-620 colon = test system: SW-620 colon
NCI-H460 lung = test system: NCI-H460 lung
SF-268 CNS = test system: SF-268 CNS
SK-OV-3 ovarian = test system: SK-OV-3 ovarian
RPMI-8226 leukemia = test system: RPMI-8226 leukemia
NCI-H226 lung = test system: NCI-H226 lung
LOX IMVI melanoma = test system: LOX IMVI melanoma
EKVX NSCLC = test system: EKVX NSCLC
OVCAR-8 ovarian = test system: OVCAR-8 ovarian
UACC-257 melanoma = test system: UACC-257 melanoma
MDA-N = test system: MDA-N
MCF7 breast = test system: MCF7 breast
BT-549 breast = test system: BT-549 breast
A498 renal = test system: A498 renal
OVCAR-5 ovarian = test system: OVCAR-5 ovarian
UO-31 renal = test system: UO-31 renal
A549 NSCLC = test system: A549 NSCLC
U251 CNS = test system: U251 CNS
ACHN renal = test system: ACHN renal
T-47D breast = test system: T-47D breast
SF-295 CNS = test system: SF-295 CNS
MDA-MB-435 = test system: MDA-MB-435
SNB-19 CNS = test system: SNB-19 CNS
COLO 205 colon = test system: COLO 205 colon
SK-MEL-2 melanoma = test system: SK-MEL-2 melanoma
OVCAR-4 ovarian = test system: OVCAR-4 ovarian
SN12C renal = test system: SN12C renal
HCT-116 colon = test system: HCT-116 colon
SNB-75 CNS = test system: SNB-75 CNS
786-0 renal = test system: 786-0 renal
SF-539 CNS = test system: SF-539 CNS
CCRF-CEM leukemia = test system: CCRF-CEM leukemia
PC-3 prostate = test system: PC-3 prostate
KM12 colon = test system: KM12 colon
HCC-2998 colon = test system: HCC-2998 colon
NCI/ADR-RES ovarian = test system: NCI/ADR-RES ovarian
HCT-15 colon = test system: HCT-15 colon
SK-MEL-5 melanoma = test system: SK-MEL-5 melanoma
MALME-3M melanoma = test system: MALME-3M melanoma
SK-MEL-28 melanoma = test system: SK-MEL-28 melanoma
CAKI-1 renal = test system: CAKI-1 renal
MDA-MB-231 breast = test system: MDA-MB-231 breast
MOLT-4 leukemia = test system: MOLT-4 leukemia
HL-60(TB) leukemia = test system: HL-60(TB) leukemia
IGROV1 ovarian = test system: IGROV1 ovarian
SR leukemia = test system: SR leukemia
DU-145 prostate = test system: DU-145 prostate
HS 578T breast = test system: HS 578T breast
K-562 leukemia = test system: K-562 leukemia
HT29 colon = test system: HT29 colon
HOP-92 NSCLC = test system: HOP-92 NSCLC
UACC-62 melanoma = test system: UACC-62 melanoma

Cc1cc2nc3c(C#N)c(-c4ccccc4)/c(=C\Nc4ccc(Cl)cc4)c(=O)n3c2cc1C
TGI (TK-10 renal): > 100 µM | TGI (NCI-H522 lung): > 100 µM | TGI (OVCAR-3 ovarian): > 100 µM | TGI (M14 melanoma): > 100 µM | TGI (NCI-H23 lung): > 100 µM | TGI (RXF 393 renal): > 100 µM | TGI (HOP-62 NSCLC): > 100 µM | TGI (SW-620 colon): > 100 µM | TGI (NCI-H460 lung): > 100 µM | TGI (SF-268 CNS): > 100 µM | TGI (SK-OV-3 ovarian): > 100 µM | TGI (RPMI-8226 leukemia): > 100 µM | TGI (NCI-H226 lung): > 100 µM | TGI (LOX IMVI melanoma): > 100 µM | TGI (EKVX NSCLC): > 100 µM | TGI (OVCAR-8 ovarian): > 100 µM | TGI (UACC-257 melanoma): > 100 µM | TGI (MDA-N): > 100 µM | TGI (MCF7 breast): > 100 µM | TGI (BT-549 breast): > 100 µM | TGI (A498 renal): > 100 µM | TGI (OVCAR-5 ovarian): > 100 µM | TGI (UO-31 renal): > 100 µM | TGI (A549 NSCLC): > 100 µM | TGI (U251 CNS): > 100 µM | TGI (ACHN renal): > 100 µM | TGI (T-47D breast): > 100 µM | TGI (SF-295 CNS): > 100 µM | TGI (MDA-MB-435): > 100 µM | TGI (SNB-19 CNS): > 100 µM | TGI (COLO 205 colon): > 100 µM | TGI (SK-MEL-2 melanoma): > 100 µM | TGI (OVCAR-4 ovarian): > 100 µM | TGI (SN12C renal): > 100 µM | TGI (HCT-116 colon): > 100 µM | TGI (SNB-75 CNS): > 100 µM | TGI (786-0 renal): > 100 µM | TGI (SF-539 CNS): > 100 µM | TGI (CCRF-CEM leukemia): > 100 µM | TGI (PC-3 prostate): > 100 µM | TGI (KM12 colon): > 100 µM | TGI (HCC-2998 colon): > 100 µM | TGI (NCI/ADR-RES ovarian): > 100 µM | TGI (HCT-15 colon): > 100 µM | TGI (SK-MEL-5 melanoma): > 100 µM | TGI (MALME-3M melanoma): > 100 µM | TGI (SK-MEL-28 melanoma): > 100 µM | TGI (CAKI-1 renal): > 100 µM | TGI (MDA-MB-231 breast): > 100 µM

Cc1cccc(O)c1-c1nnc(CCCCCCCCc2nnc(-c3c(C)cccc3O)n2N)n1N
TGI (TK-10 renal): > 59 µM | TGI (NCI-H522 lung): 97.2 µM | TGI (OVCAR-3 ovarian): > 100 µM | TGI (MOLT-4 leukemia): > 42.1 µM | TGI (M14 melanoma): > 100 µM | TGI (NCI-H23 lung): > 100 µM | TGI (HOP-62 NSCLC): 62 µM | TGI (HL-60(TB) leukemia): > 100 µM | TGI (SW-620 colon): > 100 µM | TGI (NCI-H460 lung): > 100 µM | TGI (IGROV1 ovarian): > 100 µM | TGI (SF-268 CNS): > 100 µM | TGI (SK-OV-3 ovarian): > 100 µM | TGI (RPMI-8226 leukemia): > 100 µM | TGI (NCI-H226 lung): > 100 µM | TGI (LOX IMVI melanoma): > 100 µM | TGI (EKVX NSCLC): > 100 µM | TGI (UACC-257 melanoma): > 100 µM | TGI (MDA-N): > 100 µM | TGI (MCF7 breast): > 100 µM | TGI (BT-549 breast): > 100 µM | TGI (A498 renal): > 100 µM | TGI (OVCAR-5 ovarian): > 100 µM | TGI (UO-31 renal): > 100 µM | TGI (SR leukemia): > 52.5 µM | TGI (A549 NSCLC): > 100 µM | TGI (U251 CNS): 67.5 µM | TGI (ACHN renal): > 100 µM | TGI (T-47D breast): > 100 µM | TGI (SF-295 CNS): > 100 µM | TGI (MDA-MB-435): > 100 µM | TGI (SNB-19 CNS): > 100 µM | TGI (COLO 205 colon): > 31.6 µM | TGI (SK-MEL-2 melanoma): > 83.3 µM | TGI (OVCAR-4 ovarian): > 56.1 µM | TGI (DU-145 prostate): > 100 µM | TGI (SN12C renal): > 100 µM | TGI (HS 578T breast): > 100 µM | TGI (K-562 leukemia): > 100 µM | TGI (HT29 colon): > 100 µM | TGI (HCT-116 colon): > 100 µM | TGI (SNB-75 CNS): > 58.1 µM | TGI (SF-539 CNS): > 100 µM | TGI (CCRF-CEM leukemia): 37.1 µM | TGI (PC-3 prostate): > 100 µM | TGI (KM12 colon): > 100 µM | TGI (HCC-2998 colon): > 100 µM | TGI (HCT-15 colon): > 100 µM | TGI (SK-MEL-5 melanoma): > 100 µM | TGI (MALME-3M melanoma): > 100 µM | TGI (SK-MEL-28 melanoma): > 100 µM | TGI (CAKI-1 renal): > 100 µM | TGI (HOP-92 NSCLC): > 31.6 µM | TGI (MDA-MB-231 breast): > 100 µM | TGI (UACC-62 melanoma): > 100 µM

CCSC1=N/C(=C\c2ccco2)C(NN)=N1
TGI (TK-10 renal): > 50 µM | TGI (NCI-H522 lung): > 50 µM | TGI (OVCAR-3 ovarian): > 50 µM | TGI (MOLT-4 leukemia): > 50 µM | TGI (M14 melanoma): > 50 µM | TGI (NCI-H23 lung): > 50 µM | TGI (RXF 393 renal): > 50 µM | TGI (HOP-62 NSCLC): > 50 µM | TGI (HL-60(TB) leukemia): > 50 µM | TGI (SW-620 colon): > 50 µM | TGI (NCI-H460 lung): > 50 µM | TGI (IGROV1 ovarian): > 50 µM | TGI (SF-268 CNS): > 50 µM | TGI (SK-OV-3 ovarian): > 50 µM | TGI (RPMI-8226 leukemia): > 50 µM | TGI (NCI-H226 lung): > 50 µM | TGI (LOX IMVI melanoma): > 50 µM | TGI (EKVX NSCLC): > 50 µM | TGI (OVCAR-8 ovarian): > 50 µM | TGI (UACC-257 melanoma): > 50 µM | TGI (MDA-N): > 50 µM | TGI (BT-549 breast): > 50 µM | TGI (A498 renal): > 50 µM | TGI (OVCAR-5 ovarian): > 50 µM | TGI (UO-31 renal): > 50 µM | TGI (A549 NSCLC): > 50 µM | TGI (U251 CNS): > 50 µM | TGI (ACHN renal): > 50 µM | TGI (T-47D breast): > 50 µM | TGI (SF-295 CNS): > 50 µM | TGI (MDA-MB-435): > 50 µM | TGI (SNB-19 CNS): > 50 µM | TGI (COLO 205 colon): > 50 µM | TGI (SK-MEL-2 melanoma): > 50 µM | TGI (DU-145 prostate): > 50 µM | TGI (SN12C renal): > 50 µM | TGI (HS 578T breast): > 50 µM | TGI (K-562 leukemia): > 50 µM | TGI (HT29 colon): > 50 µM | TGI (HCT-116 colon): > 50 µM | TGI (SNB-75 CNS): > 50 µM | TGI (786-0 renal): > 50 µM | TGI (SF-539 CNS): > 50 µM | TGI (CCRF-CEM leukemia): > 50 µM | TGI (PC-3 prostate): > 50 µM | TGI (KM12 colon): > 50 µM | TGI (NCI/ADR-RES ovarian): > 50 µM | TGI (HCT-15 colon): > 50 µM | TGI (SK-MEL-5 melanoma): > 50 µM | TGI (MALME-3M melanoma): > 50 µM | TGI (SK-MEL-28 melanoma): > 50 µM | TGI (CAKI-1 renal): > 50 µM | TGI (HOP-92 NSCLC): > 50 µM | TGI (MDA-MB-231 breast): > 50 µM | TGI (UACC-62 melanoma): > 50 µM

— PubChem BioAssay (NCI)
